In patent publication EP2342182B1 (H. Lundbeck A/S, priority 2008, dated 2010):
Starred links: 1 amine or outer side, 2 acyl side, 3 side chain; linkers in the order of their positions; H or OH if unused. Non-standard residues stand in square brackets, D forms with d. Residues, ends and D or L forms follow the SMILES beside them. X1 = O=C([C@H](Cc1cnc(I)[nH]1)N[*:1])[*:2]

Tests used:
human NK3 receptor [1] = target: T1, human NK3 receptor (Homo sapiens, UniProt P29371); assay: NK3 receptor binding assay (SPA-based competition binding with 125I-NKB); settings: read-out: Affinity (Ki/nM); as to Affinity (Ki/nM): competition with app 0.02 nM 125I-NKB
T1 construct: expressed in transfected cells; membranes prepared from them
T1 sequence (P29371 1-465): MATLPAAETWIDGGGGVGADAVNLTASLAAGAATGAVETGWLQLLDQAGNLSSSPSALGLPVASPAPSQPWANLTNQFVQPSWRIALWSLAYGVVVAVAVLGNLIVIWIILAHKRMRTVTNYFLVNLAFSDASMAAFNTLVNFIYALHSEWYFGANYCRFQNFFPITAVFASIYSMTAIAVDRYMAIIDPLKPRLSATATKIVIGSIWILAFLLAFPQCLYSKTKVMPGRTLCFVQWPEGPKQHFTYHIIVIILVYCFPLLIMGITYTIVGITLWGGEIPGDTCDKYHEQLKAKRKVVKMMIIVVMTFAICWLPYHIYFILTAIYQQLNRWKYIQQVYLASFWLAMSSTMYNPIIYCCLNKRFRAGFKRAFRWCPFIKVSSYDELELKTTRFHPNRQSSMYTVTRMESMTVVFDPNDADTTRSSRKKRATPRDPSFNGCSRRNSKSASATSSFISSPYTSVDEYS
Method: Example 12 NK3 receptor binding assay
(§1) Membranepreparation: BHK cells stably expressing the human NK3 receptor were seeded in harvesting plates in Dulbeccos MEM containing GlutaMax (862 mg/l), 1mM sodium pyruvate, 10% fetal calf serum, 1% Pen/Strep, 1 mg/ml G418 and were grown at 34 °C in a humidified atmosphere containing 10% CO2. To increase receptor expression, 10 µM trichotatin A was added to the media 24 hours before harvest of the cells at a confluency of app 90%. Prior to the harvesting, the cells were washed twice with PBS without Mg^2+ og Ca^2+ and subsequently scrapped of in 10 ml PBS pr harvesting plate. The cells suspension were centrifuged at 1500xG in three minutes before resuspension in 15 mM Tris-HCl pH 7,5 buffer containing 2 mM MgCl2; 0,3 mM EDTA and 1 mM EGTA (buffer A). The cell suspention was homogenised and subsequently centrifuged at 40000xG in 30 minutes. The membrane-pellet was resuspended in buffer A containing 250 mM sucrose, alliquoted and stored at ― 80 °C.
Affinity assay description: The assay was performed as a SPA-based competition-binding assay in a 50 mM Tris pH 7.4 assay buffer containing 120 mM NaCl, 3 mM MnCl2, 40 µg/ml bacitracin, 2 µg/ml Chymostatin, 1 µg/ml Phosphoramidon and 4 µg/ml Leupeptin. […] The assay plate was subsequently under agitation incubated for 90 min at RT. The plate was centrifugated 10 minutes at 500xG and counted in a topcounter 5 minuttes pr well.
The total binding, which comprised less than 5 % of added radioligand, was defined using assay buffer whereas the non-specific binding was defined in the presence of 1 µM osanetant. The non-specific binding constituted app 5 % of the total binding.

[2] = Free fraction in plasma (equilibrium dialysis); format: in vitro ADME; settings: human EDTA plasma, pH 7.4 buffer, 37 °C
Method: Example 14 Free fraction in plasma
Free fraction in human plasma has been determined by equilibrium dialysis between human EDTA plasma (Bioreclamation) and 0.1 M NaH2PO4 buffer adjusted to pH 7.4. The experiment was performed in a 96 well dialysis plate (HTD96b, htdialysis). Plasma was frozen at -80 °C immediately after purchasing. Membranes (HTD 96a/b Dialysis Membrane Strips, MWCO 12-14 K, htdialysis) were soaked for one hour in pure PBS and kept in PBS/EtOH 80:20 (v/v) in a closed bottle at 5 °C until use.
Plasma was thawed in cold water and centrifuged 5 min at 3000 rpm before use to move potential clots. The plasma supernatant was transferred to a new tube. Test compounds were diluted to 0.2 mM in DMSO. Plasma was spiked 1:100 with test compound (final concentration 2 µM).
The dialysis plate was assembled with membranes according to the instructions whereupon 150 µL phosphate buffer was loaded to the lower side of the wells immediately after assembling and spiked plasma was loaded to the upper side of the wells. The plate was sealed with sealing tape and incubated at 37 °C with gently shaking in 5 hours.
After 5 hours incubation the plate was removed from the incubator. The sealing tape was carefully removed and 70 µL from the buffer wells ("lower" side) were transferred to 96 well plates for analysis.
Samples were analysed by LC-MS-MS on a Sciex API 4000 (Applied Biosystems). […]

human NK3 receptor [3] = target: T1, human NK3 receptor; assay: NK3 receptor binding assay (SPA-based competition binding with 125I-NKB); settings: read-out: KD of 125I-NKB; three independent saturation assays, duplicate determinations
Method: as §1, with “Example 12 NK3 receptor binding assay Membranepreparation:” for “Membranepreparation:”, “°C. Affinity assay description: The assay was performed as a SPA-based competition-binding assay in a 50 mM Tris pH 7.4 assay buffer containing 120 mM NaCl, 3 mM MnCl2, 40 µg/ml bacitracin, 2 µg/ml Chymostatin, 1 µg/ml Phosphoramidon and 4 µg/ml Leupeptin. […] The plate was centrifugated 10 minutes at 500xG and counted in a topcounter 5 minuttes pr well. […]” for “°C.”

human NK3 receptor [4] = target: T1, human NK3 receptor; assay: NK3 receptor efficacy and potency assay (FLIPR Calcium 4); format: cell-based; settings: read-out: Potency (cIC50/nM)
Method: Example 13 NK3 receptor efficacy and potency assay
BHK cells stably expressing the human NK3 receptor were seeded in 100 µl media in black walled clear-base 96-wells plates (Costar) aiming at a confluency of 95-100% at the day of assay. The assay was performed according to the FLIPR Calcium 4 Assay kit (Molecular Devices). At the day of the assay, the media was removed and the cells were washed once with the HBSS buffer (Hanks BSS buffer, pH 7,4 containing 20 mM Hepes) before 100 µl of a solution of the calcium assay reagent dissolved in the HBSS buffer containing 2,5 mM probinicid was added to the cells. The plates were incubated for 60 min at 34°C, 10% CO2 before use in the FLIPR for examination of fluorescence.
For efficacy and potency evaluation of compounds, these were diluted in HBSS buffer prior to test. For test of agonist activity, 25 µl of the diluted compound solution was added and the plate was analyzed for 5 minutes in the FLIPR. For test of antagonist activity, the plate was incubated for another 45 minutes before addition of 25 µl of the EC85 concentration ofNKB (app. 4 nM) as described above. The plates were subsequently analyzed for 5 minutes before the assay was terminated. The maximal increase in fluorescence over background following each ligand addition was determined.

With `CCNn1c(C)c(C(=O)N[C@H](c2cccc(F)c2)C2CCC2)c2cccc(F)c2c1=O` [Example 2s, 2-Ethylamino-8-fluoro-3-methyl-1-oxo-1,2-dihydro-isoquinoline-4-carboxylic acid [(S)-cyclobutyl-(3-fluoro-phenyl)-methyl]-amide] the Ki (human NK3 receptor [1]) was 4.7 nM and the fraction unbound at 5 h, 2 µM [2] was 0.06.
With `CCNn1c(C)c(C(=O)N[C@H](c2ccccc2)C2CC2)c2cccc(F)c2c1=O` [Example 2i, 2-Ethylamino-8-fluoro-3-methyl-1-oxo-1,2-dihydro-isoquinoline-4-carboxylic acid ((S)-cyclopropyl-phenyl-methyl)-amide] the Ki (human NK3 receptor [1]) was 27 nM and the fraction unbound at 5 h, 2 µM [2] was 0.134.
With `CSCC[C@H](NC(=O)[C@H](CC(C)C)NC(=O)CNC(=O)[C@@H](NC(=O)[C@H](Cc1ccccc1)NC(=O)[C@H](Cc1ccccc1)NC(=O)[C@H](CC(=O)O)NC(=O)[C@H](Cc1cnc(I)[nH]1)NC(=O)[C@H](CCSC)NC(=O)[C@@H](N)CC(=O)O)C(C)C)C(N)=O` [^125I-NKB] (H-DM[X1]DFFVGLM-NH2) the Kd (human NK3 receptor [3]) was 0.7 nM.
`CCNn1c(C)c(C(=O)N[C@H](c2ccc(F)cc2)C2CC2)c2cccc(F)c2c1=O` [Example 2w, 2-Ethylamino-8-fluoro-3-methyl-1-oxo-1,2-dihydro-isoquinoline-4-carboxylic acid [(S)-cyclopropyl-(4-fluoro-phenyl)-methyl]-amide] showed a Ki (human NK3 receptor [1]) of 28 nM and a fraction unbound at 5 h, 2 µM [2] of 0.132.
In the case of `CC[C@H](NC(=O)c1c(O)c(-c2ccccc2)nc2ccccc12)c1ccccc1` [Talnetant, talnetant, reference compound], the fraction unbound at 5 h, 2 µM [2] is reported as 0.006.
Molecule `CCNn1c(C)c(C(=O)N[C@@H](CC)c2ccccc2)c2ccccc2c1=O` [Example 2a, 2-Ethylamino-3-methyl-1-oxo-1,2-dihydro-isoquinoline-4-carboxylic acid ((S)-1-phenylpropyl)-amide] has a fraction unbound at 5 h, 2 µM [2] of 0.162.
For `CCNn1c(C)c(C(=O)N[C@@H](CC)c2ccccc2)c2cccc(Cl)c2c1=O` [Example 2h, 8-Chloro-2-ethylamino-3-methyl-1-oxo-1,2-dihydro-isoquinoline-4-carboxylic acid ((S)-1-phenyl-propyl)-amide], the Ki (human NK3 receptor [1]) was 31 nM, the IC50 (human NK3 receptor [4]) was 36 nM and the fraction unbound at 5 h, 2 µM [2] was 0.062.
Molecule `CCCNn1c(C)c(C(=O)N[C@H](c2ccc(F)cc2)C2CCC2)c2cccc(F)c2c1=O` [Example 8c] has a fraction unbound at 5 h, 2 µM [2] of 0.046.
`CCCNn1c(C)c(C(=O)N[C@H](c2ccccc2)C2CC2)c2cccc(F)c2c1=O` [Example 2k, 8-Fluoro-3-methyl-1-oxo-2-propylamino-1,2-dihydro-isoquinoline-4-corboxylic acid ((S)-cyclopropyl-phenyl-methyl)-amide] showed a fraction unbound at 5 h, 2 µM [2] of 0.124.
With `Cc1c(C(=O)N[C@H](c2cccc(F)c2)C2CCC2)c2cccc(F)c2c(=O)n1NCCCF` [Example 10a, 8-Fluoro-2-(3-fluoro-propylamino)-3-methyl-1-oxo-1,2-dihydro-isoqunoline-4-carboxylic acid [(S)-cyclobutyl-(3-fluoro-phenyl)-methyl]-amide] the fraction unbound at 5 h, 2 µM [2] was 0.089.
Work on `CCNn1c(C)c(C(=O)N[C@@H](CC)c2ccccc2)c2cccc(F)c2c1=O` [Example 2t, 2-Ethylamino-8-fluoro-3-methyl-1-oxo-1,2-dihydro-isoquinoline-4-carboxylic acid ((S)-1-phenyl-propyl)-amide] yielded a Ki (human NK3 receptor [1]) of 43 nM and a fraction unbound at 5 h, 2 µM [2] of 0.146.
